Test results: patent US8541462B2, “Tetrahydrocarbazole derivatives as ligands of G-protein coupled receptors” (AEterna Zentaris GmbH, priority 2007, dated 2013)
Where a name gives a salt, the structure may show the parent alone.

Columns and labels:
[1] = target: T1, LHRH receptor (endogenous GnRH receptor of alpha T3-1 cell line) (Mus musculus, UniProt Q01776); experiment: LHRH-receptor binding assay (displacement of [125I] cetrorelix on alpha T3-1 cells); conditions: WO 2006/005484-substance 75 = 100%
T1 construct: alpha T3-1 cell line with endogenous GnRH receptor expression; endogenous in cells; host or cells: alpha T3-1 cells (intact cell suspension)
T1 sequence (Q01776 1-327): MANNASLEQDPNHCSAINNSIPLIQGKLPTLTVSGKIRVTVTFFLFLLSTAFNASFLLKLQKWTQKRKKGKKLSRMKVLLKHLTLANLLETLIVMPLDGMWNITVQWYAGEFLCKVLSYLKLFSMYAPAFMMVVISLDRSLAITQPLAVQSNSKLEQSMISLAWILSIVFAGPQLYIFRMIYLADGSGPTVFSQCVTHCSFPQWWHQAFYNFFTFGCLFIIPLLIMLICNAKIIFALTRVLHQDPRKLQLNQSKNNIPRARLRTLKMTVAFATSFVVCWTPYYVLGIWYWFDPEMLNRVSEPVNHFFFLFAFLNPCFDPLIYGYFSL
Procedure: For LHRH receptor binding studies, an assay system using alpha T3-1 cell line with endogenous GnRH receptor expression was employed (Windle et al., Mol. Endocrinol. 1990, 4(4): 597-603).
Iodinated cetrorelix was used as a tracer with about 80% of peptide capable of specific receptor association.
For displacement binding assays, the cells were incubated with approximately 200 pM [^125l] cetrorelix and different concentrations of unlabeled test compounds as competitor. The cell suspension in binding medium was layered on top of silicon/paraffin oil, incubated for 60 min at 37° C. and separated by centrifugation. The tips of the tubes containing the cell pellet were cut off, subsequently cell pellet and supernatant were analyzed by gamma-radiation analysis.
The amount of unspecific binding was determined by including unlabeled cetrorelix at 1 μM final concentration and was typically ≦10% of total binding. IC50 values were calculated by using the GraphPad Prism analysis program (GraphPad Software Inc.).

[2] = tested on: plasma testosterone; experiment: Testosterone suppression experiment (plasma testosterone ELISA); type: in vivo, rat; conditions: male Wistar rats, po in Solutol HS15/PEG300 (3:1), samples up to 24 h post-dose
Procedure: Male Wistar rats weighing 248-296 g (Janvier, France) were used in the present study. Animals were housed in a temperature-controlled room (20-22° C.) and maintained in a 12 h light/12 h dark cycle. Food and water were available ad libitum.
(§1) Rats were anaesthetised with a ketamine (135 mg/kg)/xylazine (10 mg/kg) mixture, and cannulated with silicone tubing via the right jugular vein. Prior to the first blood sampling, animals were connected to a counterbalanced system and tubing, to perform blood sampling in the freely moving rat.
The dosing solutions were prepared immediately before application. […]
The concentrations of testosterone in the rat plasma samples were determined using the Testosterone ELISA (EIA-1559) from DRG Instruments according to the manufacturer's instructions. […] The plate was read within the next 30 min with a Spectramax Plus (Molecular Devices) at 450 nm. The concentration of testosterone in the samples was calculated from the standard curve and is inversely proportional to the optical density measured.
Due to the pulsatile release of testosterone in intact rats, two pre-treatment samples ere collected to establish baseline values prior the administration of the compound. […] The pre-treatment mean value was compared to the testosterone levels measured after application.

[3] = Pharmacokinetic study (oral, cannulated rats, LC/MS of plasma); type: in vivo, rat
Procedure: Adult male Wistar rats weighing 278-290 g (Jinvier, France) were used in the study. Animals were housed in a temperature-controlled room (20-24° C.) and maintained in a 12 h light/12 h dark cycle. Food and water were available ad libitum.
as §1, with “For surgery, rats” for “Rats”, “(90” for “(135”, “tubing” for “tubing,”
Separate stock solutions (5 mg/ml) of compound 52 of the invention and prior art substance WO 2006/005484—substance 76 were prepared in Solutol HS 15/PEG300 (3:1). The whole process was performed under constant stirring. Half of the volume of the vehicle was added first. After sonication (5 minutes), the second half of the vehicle was added and the vials were again sonicated. All the solutions were clear and free of particles or agglomerates.
Immediately before application, the dosing mixture was prepared by adding equal volumes of the stock solutions to end up with a final concentration of 1 mg/ml for each compound. The mixture was applied orally to rats with an application volume of 5 ml/kg.
Blood samples (200 μl) were taken 1 hour before application and 1, 2, 4, 6, 8, 12 and 24 hours after. They were centrifuged at 650 g for 10 minutes at 4° C. and then the plasma was harvested and kept at −20° C. until LC/MS analysis.

[4] = Metabolic stability testing in liver microsomes; type: in vitro ADME; conditions: mixed-gender human liver microsomes, 1 mg microsomal protein/mL, initial concentration 10 μM, 60 minutes at 37° C.; WO 2006/005484-substance 7 = 100%
Procedure: Subcellular fractions of different tissues can be prepared easily by ultracentrifugation. Most commonly these are prepared from the liver of animals and human donors to gain information about the potential hepatic clearance of compounds (first-pass elimination of drugs). Human or animal (e.g. dog, mouse, rat) subcellular fraction like liver microsomes, or possibly the fraction called S9 have therefore become a very commonly and widely used as an in vitro model to investigate mainly cytochrome P450 dependent phase I (but also phase II) metabolism that takes place in the liver.
In order to reflect the standard proportion of the enzymes in human and animal livers, liver microsomes are usually pooled from a number of […] of the same sex (or mixed-gender). By supplementing the liver microsomes with relevant cofactors and other components it is possible to investigate and distinguish between CYPs, flavin-containing monooxygenase (FMO) and UDP-glucuronosyltransferase (UGT) activities.
Selected compounds of the invention were tested for their stability in mixed-gender human liver microsomes and compared to pertinent prior art compounds.
Under the test conditions applied (1 mg microsomal protein/mL, initial concentration of 10 μM, and incubation for 60 minutes at 37° C.) the following normalized results were obtained.

[5] = rat, plasma, male Wistar rats, oral, 5 mg/kg, mixture of both compounds in Solutol HS 15/PEG300 (3:1)

Normalized Affinity [1] [%] | AUC(0-t) [3, 5] [ng·h/mL] | Cmax [3, 5] [ng/mL] | Tmax [3, 5] [h] | higher AUC compared to the pertinent prior art substance (indicative for bioavailability) ([3]; versus WO 2006/005484-substance 76, rats, oral 5 mg/kg) | Normalized microsomal stability [4] [%] | Structure (SMILES) | mean plasma testosterone concentration over time (FIG. 2) [2]
247 |  |  |  |  |  | CCC(C)[C@H](NC(=O)Cc1ccccc1F)C(=O)N[C@]1(C(=O)N[C@H](C(=S)NCCN2CCOCC2)C(C)CC)CCc2[nH]c3c(C(F)(F)F)cccc3c2C1 (stereo partly drawn) [compound 54 (TFA salt), (R)-3-{(S)-2-[2-(2-Fluoro-phenyl)-acetylamino]-3-methyl-pentanoylamino}-8-trifluoromethyl-2,3,4,9-tetrahydro-1H-carbazole-3-carboxylic acid [(S)-2-methyl-1-(2-morpholin-4-yl-ethylthiocarbamoyl)-butyl]-amide] | testosterone suppression
218 | 306 | 38.2 | 4 | more than 300% | 178 | CCC(C)[C@H](NC(=O)Cc1ccccc1F)C(=O)N[C@]1(C(=O)N[C@H](C(=S)NCC2CCOCC2)C(C)CC)CCc2[nH]c3c(C(F)(F)F)cccc3c2C1 (stereo partly drawn) [Compound 52, (R)-3-{(S)-2-[2-(2-Fluoro-phenyl)-acetylamino]-3-methyl-pentanoylamino}-8-trifluoromethyl-2,3,4,9-tetrahydro-1H-carbazole-3-carboxylic acid {(S)-2-methyl-1-[(tetrahydro-pyran-4-ylmethyl)-thiocarbamoyl]-butyl}-amide] | 
